According to ChEMBL document CHEMBL1255174, “Synthesis and biological evaluation of a novel series of bis-salicylaldehydes as mushroom tyrosinase inhibitors” (Bioorg Med Chem Lett, 2010):

These compounds were tested against T1, Tyrosinase (Agaricus bisporus, UniProt O42713) (assay: Inhibition of mushroom tyrosinase by Lineweaver-Burke double reciprocal plot analysis).
T1 sequence (O42713 whole entry): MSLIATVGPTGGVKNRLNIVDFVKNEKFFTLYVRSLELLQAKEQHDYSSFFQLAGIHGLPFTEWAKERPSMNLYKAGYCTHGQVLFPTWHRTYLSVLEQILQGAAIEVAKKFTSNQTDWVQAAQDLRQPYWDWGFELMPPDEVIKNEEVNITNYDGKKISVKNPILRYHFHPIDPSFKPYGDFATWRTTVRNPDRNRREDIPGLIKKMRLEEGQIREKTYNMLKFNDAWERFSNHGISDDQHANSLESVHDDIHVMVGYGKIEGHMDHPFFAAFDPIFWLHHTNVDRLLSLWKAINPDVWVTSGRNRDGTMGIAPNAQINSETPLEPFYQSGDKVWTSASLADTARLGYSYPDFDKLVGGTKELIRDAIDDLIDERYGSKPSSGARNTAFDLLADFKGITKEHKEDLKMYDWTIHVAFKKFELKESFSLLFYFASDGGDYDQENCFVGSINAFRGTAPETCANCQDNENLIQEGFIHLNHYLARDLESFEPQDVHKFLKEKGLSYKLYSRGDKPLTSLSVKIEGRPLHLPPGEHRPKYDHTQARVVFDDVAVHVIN

`O=Cc1cc(Cc2ccc(O)c(C=O)c2)ccc1O` was tested, and the Ki was 48 µM.

The compounds below were run against T1, Tyrosinase.
Description: Inhibition of mushroom tyrosinase after 10 mins by L-DOPA oxidation assay

First: O=Cc1cc(Cc2ccc(O)c(C=O)c2)ccc1O
Second: O=Cc1cc(Cc2cc(O)c(O)c(C=O)c2)cc(O)c1O
The IC50 of the first is 7.1-fold lower: 74 µM for the first, 523 µM for the second.

Compared with `COc1cc(Cc2cc(C=O)c(O)c(OC)c2)cc(C=O)c1O`, `COc1cc(O)c(C=O)cc1Cc1cc(C=O)c(O)cc1OC` is 5.9-fold lower in IC50: 695 µM for the first, 117 µM for the second. The second is the more potent here.

`O=Cc1cc(Cc2cc(C=O)c(O)cc2O)c(O)cc1O` gave an IC50 of 76 µM.
